Publication PMC7832312, “Enhancing the Physiochemical Properties of Puerarin via L-Proline Co-Crystallization: Synthesis, Characterization, and Dissolution Studies of Two Phases of Pharmaceutical Co-Crystals” (International Journal of Molecular Sciences, 2021)

Legend:
CT-26 cancer cell lines = experiment: Cytotoxicity evaluation by MTT assay, CT-26; type: cell-based, murine; settings: CT-26, culturing 24 h
Procedure: (§1) CT-26 and HEK-293 cell line was purchased from American Type Culture Collection (Manassas, VA, USA). The cell lines were cultured in RPMI 1640 (for CT-26) or DMEM (for HEK-293) containing 10% fetal bovine serum (FBS, Zhejiang Tianhang Biotechnology Co. Ltd., Hangzhou, China) and 1% penicillin/streptomycin (Zhejiang Tianhang Biotechnology Co. Ltd., Hangzhou, China). Cells grew as a monolayer and were detached upon confluence using trypsin (0.5% w/v in PBS, Zhejiang Tianhang Biotechnology Co. Ltd., Hangzhou, China). The cells were harvested from the cell culture medium by incubating in trypsin solution for 3 min. The cells were centrifuged, and the supernatant discarded. A 3 mL portion of serum-supplemented cell culture medium was added to neutralize any residual trypsin. The cells were re-suspended in serum-supplemented RPMI 1640 (for CT-26) or DMEM (for HEK-293) at a concentration of 5 × 10^4 cells per 1 mL. Cells were cultured at 37 °C and 5% CO2 for MTT studies.
(§2) The CT-26 or HEK-293 cells were seeded at a density of 1 × 10^4 cells per well in 100 µL of complete RPMI 1640 (CT-26) or DMEM (for HEK-293), and cultured for 16 h for attachment. The culture medium was then replaced by a serum-free medium containing various concentrations of pristine PUE, I, and II. […] After incubating the cells at 37 °C for 4 h, the MTT solution was removed and DMSO (100 μL) added to dissolve the formazan crystals formed, and the microplates were agitated for 5 min at a medium rate before the spectrophotometric measurement at a wavelength of 570 nm on a microplate reader. […] The relative cell viability (%) related to control cells was calculated by the formula below: V%=[A]experimental−[A]blank/[A]control−[A]blank×100% where V% is the percentage of cell viability, [A]experimental is the absorbance of the wells culturing the treated cells, [A]blank is the absorbance of the blank, and [A]control is the absorbance of the wells culturing untreated cells.

[1] = Dissolution rate measurement (UV, 250 mL medium, 150 RPM, 2 h, 37 °C); type: physicochemical; settings: 37 °C
Procedure: The solubility and dissolution studies of pure PUE, I, and II were measured using a Thermo Scientific Evolution 300 UV spectrometer in deionized water at pH 7.0, gastrointestinal tract at pH 1.2, and phosphate buffer at pH 6.8 solution at 37 °C. The concentration was calculated utilizing a standard curve, which was made by measuring the absorbance of different concentrations at their λmax. A superfluity sum of the sample was added to 10 mL of H2O medium, pH 1.2 and pH 6.8 phosphate, respectively.
The oversaturated solution was stirred at 500 RPM by magnetic stirring at 37 °C for 24 h and the suspension was filtered through Whatman’s […] syringe channel, diluted sufficiently and the absorbance was measured at their λmax. For the dissolution rate, the sample was specifically poured into 250 mL pH 7.0 water, pH 1.2 gastrointestinal tract, and pH 6.8 phosphates medium and then stirred at 150 RPM for 2h at 37 °C. Each solution was measured by the absorbance at λmax. At customary interims, the solution was replenished with 3 mL of the respective blank solution to maintain an overall steady volume.

HEK-293 cell lines = experiment: Cytotoxicity evaluation by MTT assay, HEK-293; type: cell-based, human; settings: HEK-293, culturing 24 h
Procedure: as §1, §2

Structure (SMILES): O=C(O)[C@@H]1CCCN1.O=c1c(-c2ccc(O)cc2)coc2c([C@@H]3O[C@H](CO)[C@@H](O)[C@H](O)[C@H]3O)c(O)ccc12 [I, [PUE][PRO]]
- cytotoxicity (MTT cell viability) (CT-26 cancer cell lines): negligible cytotoxicity
- Time-dependent dissolution rate ([1]; Water, 5 min): 0.220 mg/mL
- Time-dependent dissolution rate ([1]; Water, 10 min): 0.343 mg/mL
- Time-dependent dissolution rate ([1]; Water, 15 min): 0.452 mg/mL
- Time-dependent dissolution rate ([1]; Water, 20 min): 0.533 mg/mL
- Time-dependent dissolution rate ([1]; Water, 25 min): 0.591 mg/mL
- Time-dependent dissolution rate ([1]; Water, 30 min): 0.674 mg/mL
- Time-dependent dissolution rate ([1]; Water, 40 min): 0.767 mg/mL
- Time-dependent dissolution rate ([1]; Water, 50 min): 0.945 mg/mL
- Time-dependent dissolution rate ([1]; Water, 60 min): 1.045 mg/mL
- Time-dependent dissolution rate ([1]; Water, 80 min): 1.373 mg/mL
- Time-dependent dissolution rate ([1]; Water, 100 min): 1.503 mg/mL
- Time-dependent dissolution rate ([1]; Water, 120 min): 1.645 mg/mL
- Time-dependent dissolution rate ([1]; pH 1.2, 5 min): 0.013 mg/mL
- Time-dependent dissolution rate ([1]; pH 1.2, 10 min): 0.035 mg/mL
- Time-dependent dissolution rate ([1]; pH 1.2, 15 min): 0.122 mg/mL
- Time-dependent dissolution rate ([1]; pH 1.2, 20 min): 0.192 mg/mL
- Time-dependent dissolution rate ([1]; pH 1.2, 25 min): 0.249 mg/mL
- Time-dependent dissolution rate ([1]; pH 1.2, 30 min): 0.356 mg/mL
- Time-dependent dissolution rate ([1]; pH 1.2, 40 min): 0.588 mg/mL
- Time-dependent dissolution rate ([1]; pH 1.2, 50 min): 0.711 mg/mL
- Time-dependent dissolution rate ([1]; pH 1.2, 60 min): 0.958 mg/mL
- Time-dependent dissolution rate ([1]; pH 1.2, 80 min): 1.159 mg/mL
- Time-dependent dissolution rate ([1]; pH 1.2, 100 min): 1.383 mg/mL
- Time-dependent dissolution rate ([1]; pH 1.2, 120 min): 1.603 mg/mL
- Time-dependent dissolution rate ([1]; pH 6.8, 5 min): 0.207 mg/mL
- Time-dependent dissolution rate ([1]; pH 6.8, 10 min): 0.291 mg/mL
- Time-dependent dissolution rate ([1]; pH 6.8, 15 min): 0.384 mg/mL
- Time-dependent dissolution rate ([1]; pH 6.8, 20 min): 0.493 mg/mL
- Time-dependent dissolution rate ([1]; pH 6.8, 25 min): 0.570 mg/mL
- Time-dependent dissolution rate ([1]; pH 6.8, 30 min): 0.664 mg/mL
- Time-dependent dissolution rate ([1]; pH 6.8, 40 min): 0.786 mg/mL
- Time-dependent dissolution rate ([1]; pH 6.8, 50 min): 0.850 mg/mL
- Time-dependent dissolution rate ([1]; pH 6.8, 60 min): 0.918 mg/mL
- Time-dependent dissolution rate ([1]; pH 6.8, 80 min): 1.183 mg/mL
- Time-dependent dissolution rate ([1]; pH 6.8, 100 min): 1.265 mg/mL
- Time-dependent dissolution rate ([1]; pH 6.8, 120 min): 1.303 mg/mL
- cytotoxicity (MTT cell viability) (HEK-293 cell lines): negligible cytotoxicity
